#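 All cell lines were grown in 96-well plates and treated with compound for 48 hours. GI50 = concentration required for 50% inhibition of growth.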 Calls of active or inactive are those of the source. Rule as the data show it: active = GI50 up to about 1.1 µM and inactive = higher.
# Key:
# Assay in all cases: NCI anticancer screen, dose series, 48 h
# 786-0 = tested on: 786-0
# A549 = tested on: A549
# ACHN = tested on: ACHN
# BT-549 = tested on: BT-549
# CAKI-1 = tested on: CAKI-1
# CCRF-CEM = tested on: CCRF-CEM
# COLO 205 = tested on: COLO 205
# DU-145 = tested on: DU-145
# EKVX = tested on: EKVX
# HCC 2998 = tested on: HCC 2998
# HCT-116 = tested on: HCT-116
# HCT-15 = tested on: HCT-15
# HL-60 = tested on: HL-60
# HOP-62 = tested on: HOP-62
# HOP-92 = tested on: HOP-92
# HT-29 = tested on: HT-29
# Hs-578T = tested on: Hs-578T
# IGROV-1 = tested on: IGROV-1
# K562 = tested on: K562
# KM12 = tested on: KM12
# LOX IMVI = tested on: LOX IMVI
# M14 = tested on: M14
# MCF7 = tested on: MCF7
# MDA-MB-231 = tested on: MDA-MB-231
# MDA-MB-435 = tested on: MDA-MB-435
# MDA-N = tested on: MDA-N
# MOLT-4 = tested on: MOLT-4
# Malme-3M = tested on: Malme-3M
# NCI-H226 = tested on: NCI-H226
# NCI-H23 = tested on: NCI-H23
# NCI-H460 = tested on: NCI-H460
# NCI-H522 = tested on: NCI-H522
# NCI/ADR-RES = tested on: NCI/ADR-RES
# OVCAR-3 = tested on: OVCAR-3
# OVCAR-4 = tested on: OVCAR-4
# OVCAR-5 = tested on: OVCAR-5
# OVCAR-8 = tested on: OVCAR-8
# PC-3 = tested on: PC-3
# RPMI-8226 = tested on: RPMI-8226
# RXF 393 = tested on: RXF 393
# SF-268 = tested on: SF-268
# SF-295 = tested on: SF-295
# SF-539 = tested on: SF-539
# SK-MEL-28 = tested on: SK-MEL-28
# SK-MEL-2 = tested on: SK-MEL-2
# SK-MEL-5 = tested on: SK-MEL-5
# SK-OV-3 = tested on: SK-OV-3
# SN12C = tested on: SN12C
# SNB-19 = tested on: SNB-19
# SNB-75 = tested on: SNB-75
# SR = tested on: SR
# SW-620 = tested on: SW-620
# T47D = tested on: T47D
# TK-10 = tested on: TK-10
# U-251 = tested on: U-251
# UACC-257 = tested on: UACC-257
# UACC-62 = tested on: UACC-62
# UO-31 = tested on: UO-31
smiles,measurement,setting,value
CC(=O)C1=CC=C/C1=N\Nc1ccccc1,GI50,786-0,4.31 µM (inactive)
same,GI50,A549,15.1 µM (inactive)
same,GI50,ACHN,11.2 µM (inactive)
same,GI50,BT-549,11 µM (inactive)
same,GI50,CAKI-1,3.91 µM (inactive)
same,GI50,CCRF-CEM,2.94 µM (inactive)
same,GI50,COLO 205,9.42 µM (inactive)
same,GI50,DU-145,14.9 µM (inactive)
same,GI50,EKVX,5.6 µM (inactive)
same,GI50,HCC 2998,6.07 µM (inactive)
same,GI50,HCT-116,4.99 µM (inactive)
same,GI50,HCT-15,5.14 µM
same,GI50,HL-60,0.647 µM (active)
same,GI50,HOP-62,20.8 µM (inactive)
same,GI50,HOP-92,11.7 µM (inactive)
same,GI50,HT-29,3.83 µM (inactive)
same,GI50,Hs-578T,4.48 µM (inactive)
same,GI50,IGROV-1,7.4 µM (inactive)
same,GI50,K562,3.94 µM (inactive)
same,GI50,KM12,4.38 µM (inactive)
same,GI50,LOX IMVI,2.84 µM (inactive)
same,GI50,M14,10.8 µM (inactive)
same,GI50,MCF7,1.29 µM (inactive)
same,GI50,MDA-MB-231,10 µM (inactive)
same,GI50,MDA-MB-435,13.1 µM (inactive)
same,GI50,MDA-N,6.22 µM (inactive)
same,GI50,MOLT-4,3.67 µM (inactive)
same,GI50,Malme-3M,14.6 µM (inactive)
same,GI50,NCI-H226,17.3 µM (inactive)
same,GI50,NCI-H23,9.06 µM (inactive)
same,GI50,NCI-H460,11.6 µM (inactive)
same,GI50,NCI-H522,4.71 µM (inactive)
same,GI50,NCI/ADR-RES,5.28 µM (inactive)
same,GI50,OVCAR-3,3.22 µM (inactive)
same,GI50,OVCAR-4,5.71 µM (inactive)
same,GI50,OVCAR-5,7 µM (inactive)
same,GI50,OVCAR-8,9.73 µM (inactive)
same,GI50,PC-3,5.45 µM (inactive)
same,GI50,RPMI-8226,1.98 µM (inactive)
same,GI50,RXF 393,11.6 µM (inactive)
same,GI50,SF-268,7.43 µM (inactive)
same,GI50,SF-295,11.8 µM (inactive)
same,GI50,SF-539,2.36 µM (inactive)
same,GI50,SK-MEL-28,14 µM (inactive)
same,GI50,SK-MEL-2,13.4 µM (inactive)
same,GI50,SK-MEL-5,15.6 µM (inactive)
same,GI50,SK-OV-3,16.6 µM (inactive)
same,GI50,SN12C,5.81 µM (inactive)
same,GI50,SNB-19,21.1 µM (inactive)
same,GI50,SNB-75,9.33 µM (inactive)
same,GI50,SR,0.543 µM (active)
same,GI50,SW-620,3.82 µM (inactive)
same,GI50,T47D,3.33 µM (inactive)
same,GI50,TK-10,7.14 µM (inactive)
same,GI50,U-251,2.97 µM (inactive)
same,GI50,UACC-257,15.5 µM (inactive)
same,GI50,UACC-62,6.97 µM (inactive)
same,GI50,UO-31,13.1 µM (inactive)
O[C@@H]1C[C@H](Cl)c2c(Cl)sc(Cl)c21,GI50,786-0,> 100 µM (inactive)
same,GI50,A549,> 100 µM (inactive)
same,GI50,ACHN,> 100 µM (inactive)
same,GI50,BT-549,> 100 µM (inactive)
same,GI50,CAKI-1,> 100 µM (inactive)
same,GI50,CCRF-CEM,> 100 µM (inactive)
same,GI50,COLO 205,> 100 µM (inactive)
same,GI50,DU-145,> 100 µM (inactive)
same,GI50,EKVX,> 100 µM (inactive)
same,GI50,HCC 2998,> 100 µM (inactive)
same,GI50,HCT-116,> 100 µM (inactive)
same,GI50,HCT-15,> 100 µM
same,GI50,HOP-62,> 100 µM (inactive)
same,GI50,HT-29,> 100 µM (inactive)
same,GI50,Hs-578T,> 100 µM (inactive)
same,GI50,IGROV-1,> 100 µM (inactive)
same,GI50,K562,> 100 µM (inactive)
same,GI50,KM12,> 100 µM (inactive)
same,GI50,LOX IMVI,> 100 µM (inactive)
same,GI50,M14,> 100 µM (inactive)
same,GI50,MCF7,13 µM (inactive)
same,GI50,MDA-MB-231,> 100 µM (inactive)
same,GI50,MDA-MB-435,> 100 µM (inactive)
same,GI50,MDA-N,> 100 µM (inactive)
same,GI50,MOLT-4,> 100 µM (inactive)
same,GI50,Malme-3M,> 100 µM (inactive)
same,GI50,NCI-H23,> 100 µM (inactive)
same,GI50,NCI-H460,> 100 µM (inactive)
same,GI50,NCI-H522,> 100 µM (inactive)
same,GI50,NCI/ADR-RES,> 100 µM (inactive)
same,GI50,OVCAR-3,> 100 µM (inactive)
same,GI50,OVCAR-4,> 100 µM (inactive)
same,GI50,OVCAR-5,> 100 µM (inactive)
same,GI50,OVCAR-8,> 100 µM (inactive)
same,GI50,PC-3,> 100 µM (inactive)
same,GI50,RPMI-8226,> 100 µM (inactive)
same,GI50,RXF 393,> 100 µM (inactive)
same,GI50,SF-268,> 100 µM (inactive)
same,GI50,SF-295,> 100 µM (inactive)
same,GI50,SF-539,> 100 µM (inactive)
same,GI50,SK-MEL-28,> 100 µM (inactive)
same,GI50,SK-MEL-2,> 100 µM (inactive)
same,GI50,SK-MEL-5,> 100 µM (inactive)
same,GI50,SK-OV-3,> 100 µM (inactive)
same,GI50,SN12C,> 100 µM (inactive)
same,GI50,SNB-19,> 100 µM (inactive)
same,GI50,SNB-75,> 100 µM (inactive)
same,GI50,SR,> 100 µM (inactive)
same,GI50,SW-620,> 100 µM (inactive)
same,GI50,T47D,33.4 µM (inactive)
same,GI50,TK-10,> 100 µM (inactive)
same,GI50,U-251,> 100 µM (inactive)
same,GI50,UACC-257,> 100 µM (inactive)
same,GI50,UACC-62,> 100 µM (inactive)
same,GI50,UO-31,> 100 µM (inactive)

# — ChEMBL document CHEMBL1201862, “PubChem BioAssay data set” (2004)
